Experimental findings from patent US20110183954A1, “TRICYCLIC 2,4-DIAMINO-L,3,5-TRIAZINE DERIVATIVES USEFUL FOR THE TREATMENT OF CANCER AND MYELOPROLIFERATIVE DISORDERS” (ASTRAZENECA AB, priority 2008, published 2011) are described below.

What all share (format): biochemical
For one test, the target named is T1, JAK1 (Homo sapiens, UniProt P23458).
T1 construct: catalytic domain (amino acids 866-1154), GST-tagged, expressed in insect cells; GST; purchased Invitrogen; host or cells: insect cells
T1 sequence (P23458 866-1154): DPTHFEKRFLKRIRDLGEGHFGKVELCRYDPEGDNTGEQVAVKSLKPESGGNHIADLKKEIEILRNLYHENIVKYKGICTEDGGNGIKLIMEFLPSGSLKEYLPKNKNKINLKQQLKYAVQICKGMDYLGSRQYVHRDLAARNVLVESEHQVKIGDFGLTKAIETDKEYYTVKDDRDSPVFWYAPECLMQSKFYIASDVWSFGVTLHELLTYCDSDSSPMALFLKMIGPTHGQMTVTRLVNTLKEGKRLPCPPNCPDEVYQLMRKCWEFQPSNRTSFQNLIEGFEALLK
As to the kind of experiment: Method 1 (JAK1): mobility shift assay on Caliper LC3000 reader. Particulars: 3.5 nM JAK1 enzyme, 5 mM ATP, 90 minutes, room temperature; read-out: IC50 (JAK inhibitory activity, Method 1 (JAK1)). The source says:
Janus kinase 1 (JAK1) activity may be determined by measuring the kinase's ability to phosphorylate a tyrosine residue within a peptide substrate using a mobility shift assay on a Caliper LC3000 reader (Caliper, Hopkinton, Mass.), which measures fluorescence of the phosphorylated and unphosphorylated substrate and calculates a ratiometric value to determine percent turnover.
To measure JAK1 kinase activity, a commercially available purified enzyme may be used. The enzyme may be a recombinant human, catalytic domain (amino acids 866-1154), GST-tagged, expressed in insect cells (Invitrogen, Carlsbad, Calif.). After incubation of the kinase with a FITC labeled JAK1 substrate, adenosine triphosphate (ATP), and MgCl2 for 90 minutes at room temperature, the kinase reaction may be stopped by the addition of 36 mM ethylenediaminetetraacetic acid (EDTA). The reaction may be performed in 384 well microtitre plates and the reaction products may be detected using the Caliper LC3000 Reader.

The target in test [1] is T2, human JAK2 (Homo sapiens, UniProt O60674). As to the kind of experiment: Method 2 (JAK2): mobility shift assay on Caliper LC3000 reader, 5 mM ATP. The note with it: 0.3 nM JAK2 enzyme, 90 minutes, read-out: IC50 (JAK inhibitory activity, Method 2 (JAK2)). The arrangement: human JAK2 (amino acids 831-1132, PLAZA database pAZB0359) expressed in insect cells; GST (N); made in house; host or cells: insect cells. The source says:
Alternatively, Janus kinase 2 (JAK2) activity may be determined by measuring the kinase's ability to phosphorylate a tyrosine residue within a peptide substrate using a mobility shift assay on a Caliper LC3000 reader (Caliper, Hopkinton, Mass.), which measures fluorescence of the phosphorylated and unphosphorylated substrate and calculates a ratiometric value to determine percent turnover.
To measure JAK2 kinase activity, an in-house purified enzyme may be used. The enzyme may be a N-terminal GST-tagged, recombinant, human JAK2 (amino acids 831-1132, PLAZA database pAZB0359) expressed in insect cells. After incubation of the kinase with a FAM labeled SRCtide substrate, adenosine triphosphate (ATP), and MgCl2 for 90 minutes at room temperature, the kinase reaction may be stopped by the addition of 36 mM ethylenediaminetetraacetic acid (EDTA). The reaction may be performed in 384 well microtitre plates and the reaction products may be detected using the Caliper LC3000 Reader.
Target sequence in this assay (O60674 831-1132): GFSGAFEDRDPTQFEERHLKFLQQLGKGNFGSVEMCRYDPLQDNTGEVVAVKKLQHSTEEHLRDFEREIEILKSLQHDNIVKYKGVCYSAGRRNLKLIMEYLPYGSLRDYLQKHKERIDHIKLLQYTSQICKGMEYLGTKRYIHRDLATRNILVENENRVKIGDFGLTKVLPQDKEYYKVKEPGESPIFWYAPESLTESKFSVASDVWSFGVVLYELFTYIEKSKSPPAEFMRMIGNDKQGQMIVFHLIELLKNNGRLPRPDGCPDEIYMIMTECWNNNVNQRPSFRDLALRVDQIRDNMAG

The target in test [2] is T2, human JAK2. As to the kind of experiment: Method 3 (JAK2): mobility shift assay on Caliper LC3000 reader, 15 μM ATP. Also noted: human JAK2 (amino acids 831-1132, PLAZA database pAZB0359) expressed in insect cells; GST (N); made in house; host or cells: insect cells. Particulars: 0.5 nM JAK2 enzyme, 90 minutes, read-out: IC50 (JAK inhibitory activity, Method 3 (JAK2)). The procedure: Janus kinase 2 (JAK2) activity was determined by measuring the kinase's ability to phosphorylate a tyrosine residue within a peptide substrate using a mobility shift assay on a Caliper LC3000 reader (Caliper, Hopkinton, Mass.), which measures fluorescence of the phosphorylated and unphosphorylated substrate and calculates a ratiometric value to determine percent turnover.
To measure JAK2 kinase activity, an in-house purified enzyme was used. The enzyme was N-terminal GST-tagged, recombinant, human JAK2 (amino acids 831-1132, PLAZA database pAZB0359) expressed in insect cells. After incubation of the kinase with a FAM labeled SRCtide substrate, adenosine triphosphate (ATP), and MgCl2 for 90 minutes at room temperature, the kinase reaction was stopped by the addition of 36 mM ethylenediaminetetraacetic acid (EDTA). The reaction was performed in 384 well microtitre plates and the reaction products were detected using the Caliper LC3000 Reader.
Target sequence in this assay (O60674 831-1132): as above

Test [3] concerns the target T2, human JAK2. The experiment in a line: Method 1 (JAK2): Amplified Luminescent Proximity Assay (Alphascreen). Particulars: 150 pM JAK2 enzyme, 5 mM ATP, 60 minutes, room temperature, read-out: IC50 (JAK inhibitory activity, Method 1 (JAK2)). Also noted: His6 (C); purchased Upstate Biotechnology; host or cells: baculovirus in Sf21 cells. The text has this:
JAK2 kinase activity may be determined by measuring the kinase's ability to phosphorylate synthetic tyrosine residues within a generic polypeptide substrate using an Amplified Luminescent Proximity Assay (Alphascreen) technology (PerkinElmer, 549 Albany Street, Boston, Mass.).
To measure JAK2 kinase activity, a commercially available purified enzyme may be used. The enzyme may be a C-terminal His6-tagged, recombinant, human JAK2, amino acids 808-end, (Genbank Accession number NM 004972) expressed by baculovirus in Sf21 cells (Upstate Biotechnology MA). After incubation of the kinase with a biotinylated substrate and adenosine triphosphate (ATP) for 60 minutes at room temperature, the kinase reaction may be stopped by the addition of 30 mM ethylenediaminetetraacetic acid (EDTA). The reaction may be performed in 384 well microtitre plates and the reaction products may be detected with the addition of streptavidin coated Donor Beads and phosphotyrosine-specific antibodies coated Acceptor Beads using the EnVision Multilabel Plate Reader after an overnight incubation at room temperature.
Target sequence in this assay (O60674 808-1132 limits assumed): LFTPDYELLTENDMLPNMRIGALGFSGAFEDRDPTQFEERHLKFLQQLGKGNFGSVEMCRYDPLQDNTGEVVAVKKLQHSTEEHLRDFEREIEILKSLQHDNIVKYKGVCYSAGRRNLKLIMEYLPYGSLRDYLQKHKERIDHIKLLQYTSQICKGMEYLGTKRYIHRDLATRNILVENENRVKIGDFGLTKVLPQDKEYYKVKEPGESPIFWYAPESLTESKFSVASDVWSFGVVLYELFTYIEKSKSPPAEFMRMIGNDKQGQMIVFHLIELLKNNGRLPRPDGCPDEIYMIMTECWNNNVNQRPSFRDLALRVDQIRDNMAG
(In general: Alpha assays give light when donor and acceptor beads are brought close together.)

In the case of `Cn1cnc(Nc2nc(NC(CNC(=O)OC(C)(C)C)c3ccc(F)cc3)nc(N3CCOCC3)n2)c1` (single isomer, unassigned) [Example 24b, tert-Butyl [2-(4-fluorophenyl)-2-({4-[(1-methyl-1H-imidazol-4-yl)amino]-6-morpholin-4-yl-1,3,5-triazin-2-yl}amino)ethyl]carbamate], the results for the IC50 on JAK1 and on human JAK2 [1] were 1020 nM and 1710 nM, respectively.

As to `[2H]C([2H])([2H])n1cnc(Nc2nc(NC(C)c3ncc(F)cc3F)nc(N3C([2H])([2H])C([2H])([2H])OC([2H])([2H])C3([2H])[2H])n2)c1` (single isomer, unassigned) [Example 13b, N-[1-(3,5-Difluoropyridin-2-yl)ethyl]-N′-[1-(^2H3)methyl-1H-imidazol-4-yl]-6-(^2H8)morpholin-4-yl-1,3,5-triazine-2,4-diamine], the IC50 on human JAK2 [2] is < 3 nM.

With `[2H]C1([2H])OC([2H])([2H])C([2H])([2H])N(c2nc(Nc3cn(C)cn3)nc(NC(C)c3ncc(F)cc3F)n2)C1([2H])[2H]` (single isomer, unassigned) [Example 11a, N-[1-(3,5-Difluoropyridin-2-yl)ethyl]-N′-(1-methyl-1H-imidazol-4-yl)-6-(^2H8)morpholin-4-yl-1,3,5-triazine-2,4-diamine], the values for the IC50 at JAK1 and on human JAK2 [1] were 780 nM and 986 nM, respectively.

For `C[C@H](Nc1nc(Nc2cn(C)cn2)nc(N2CCOCC2)n1)c1ccc(F)cc1` [Example 30, N-[(1S)-1-(4-fluorophenyl)ethyl]-N′-(1-methyl-1H-imidazol-4-yl)-6-morpholin-4-yl-1,3,5-triazine-2,4-diamine], the IC50 is 65 nM at JAK1 and < 3 nM at human JAK2 [3].

Take `C[C@H](Nc1nc(Nc2cn(C)cn2)nc(N2CCOCC2)n1)c1ccc(Cl)cc1` [Example 29, N-[(1S)-1-(4-Chlorophenyl)ethyl]-N′-(1-methyl-1H-imidazol-4-yl)-6-morpholin-4-yl-1,3,5-triazine-2,4-diamine]: the half-inhibitory concentration (IC50) came to 510 nM on JAK1 and 4 nM on human JAK2 [3].

`[2H]C([2H])([2H])n1cnc(Nc2nc(NC(C)c3ncc(F)cc3F)nc(N3CCOCC3)n2)c1` (single isomer, unassigned) [Example 12b, N-[1-(3,5-Difluoropyridin-2-yl)ethyl]-N′-[1-(^2H3)methyl-1H-imidazol-4-yl]-6-morpholin-4-yl-1,3,5-triazine-2,4-diamine]: the IC50 at human JAK2 [2] is < 3 nM.

For the molecule `[2H]C1([2H])OC([2H])([2H])C([2H])([2H])N(c2nc(Nc3cn(C)cn3)nc(NC(C)c3ncc(F)cc3F)n2)C1([2H])[2H]` (single isomer, unassigned) [Example 11b, N-[1-(3,5-Difluoropyridin-2-yl)ethyl]-N′-(1-methyl-1H-imidazol-4-yl)-6-(^2H8)morpholin-4-yl-1,3,5-triazine-2,4-diamine], the IC50 at JAK1 came out at 15 nM; at human JAK2 [1] it was 21 nM.

On to `[2H]C([2H])([2H])n1cnc(Nc2nc(NC(C)c3ncc(F)cc3F)nc(N3C([2H])([2H])C([2H])([2H])OC([2H])([2H])C3([2H])[2H])n2)c1` (single isomer, unassigned) [Example 13a, N-[1-(3,5-Difluoropyridin-2-yl)ethyl]-N′-[1-(^2H3)methyl-1H-imidazol-4-yl]-6-(^2H8)morpholin-4-yl-1,3,5-triazine-2,4-diamine], for which, at human JAK2 [2], the IC50 was 180 nM.

As to `[2H]C([2H])([2H])n1cnc(Nc2nc(NC(C)c3ncc(F)cc3F)nc(N3CCOCC3)n2)c1` (single isomer, unassigned) [Example 12a, N-[1-(3,5-Difluoropyridin-2-yl)ethyl]-N′-[1-(^2H3)methyl-1H-imidazol-4-yl]-6-morpholin-4-yl-1,3,5-triazine-2,4-diamine], the IC50 on human JAK2 [2] worked out at 138 nM.

Turning to `Cn1cnc(Nc2nc(NC(c3ccc(F)cc3)C3CCCC3)nc(N3CCOCC3)n2)c1` (centres unmarked) [Example 27, N-[Cyclopentyl(4-fluorophenyl)methyl]-N′-(1-methyl-1H-imidazol-4-yl)-6-morpholin-4-yl-1,3,5-triazine-2,4-diamine], the IC50 on JAK1 was found to be 1980 nM; at human JAK2 [1] it was 966 nM.

For `Cn1cnc(Nc2nc(NC(c3ccc(F)cc3)c3nccn3C)nc(N3CCOCC3)n2)c1` (single isomer, unassigned) [Example 25b, N-[(4-Fluorophenyl)(1-methyl-1H-imidazol-2-yl)methyl]-N′-(1-methyl-1H-imidazol-4-yl)-6-morpholin-4-yl-1,3,5-triazine-2,4-diamine], the IC50 is 30000 nM at JAK1 and > 30000 nM on human JAK2 [1].

With `Cn1cnc(Nc2nc(NC(CNC(=O)OC(C)(C)C)c3ccc(F)cc3)nc(N3CCOCC3)n2)c1` (single isomer, unassigned) [Example 24a, tert-Butyl [2-(4-fluorophenyl)-2-({4-[(1-methyl-1H-imidazol-4-yl)amino]-6-morpholin-4-yl-1,3,5-triazin-2-yl}amino)ethyl]carbamate], the figures for the 50% inhibitory concentration (IC50) at JAK1 and on human JAK2 [1] were 83 nM and 73 nM, respectively.

One may read the IC50 as the midpoint of a concentration-inhibition curve.
